From patent US11155557B2, “Pyrazolopyrimidine compounds and methods of use thereof” (Genentech, Inc., priority 2016, dated 2021) come the findings set out here.

SMILES strings stand for the structures. Like-named read-outs stand apart in the source and are kept apart here. A value given as a limit tells only on which side of the number the result lay.

Assay [1] has as its target isolated recombinant JAK2 kinase domain (Homo sapiens (Human), UniProt O60674). The assay is described as follows: JAK2 enzyme assay (Caliper LabChip, Ki). The conditions noted are these: read-out: JAK2 Ki.
Procedure: JAK Enzyme Assays were Carried Out as Follows:
The activity of the isolated recombinant JAK1 and JAK2 kinase domain was measured by monitoring phosphorylation of a peptide derived from JAK3 ([sequence] fluorescently labeled on the N-terminus with 5-carboxyfluorescein) using the Caliper LabChip R technology (Caliper Life Sciences, Hopkinton, Mass.). […] After termination of the kinase reaction, the proportion of phosphorylated product was determined as a fraction of total peptide substrate using the Caliper LabChip R 3000 according to the manufacturer's specifications.
Assay [2] deals with isolated recombinant JAK1 kinase domain (Homo sapiens (Human), UniProt P23458). The assay is described as follows: JAK1 enzyme assay (Caliper LabChip, Ki). The class given is biochemical. The method, then:
The activity of the isolated recombinant JAK1 and JAK2 kinase domain was measured by monitoring phosphorylation of a peptide derived from JAK3 ([…] fluorescently labeled on the N-terminus with 5-carboxyfluorescein) using the Caliper LabChip R technology (Caliper Life Sciences, Hopkinton, Mass.).

Assay [3] concerns JAK1-dependent STAT6 phosphorylation in BEAS-2B human bronchial epithelial cells. The assay is described as follows: JAK1 pathway assay: IL-13 stimulated STAT6 phosphorylation in BEAS-2B cells. The class given is cell-based. To be noted: Homo sapiens, BEAS-2B, read-out: IL-13 p-STAT6 BEAS-2B IC50. The gist of the method:
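BEAS-2B bronchial epithelial cells plated one day before, run in complete growth medium. Phospho-STAT6 in lysates measured by MesoScale Discovery; EC50 reported.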

[4] abbreviates: BEAS-2B cells, IL-13 stimulation.

Sequence of isolated recombinant JAK1 kinase domain (P23458 875-1153): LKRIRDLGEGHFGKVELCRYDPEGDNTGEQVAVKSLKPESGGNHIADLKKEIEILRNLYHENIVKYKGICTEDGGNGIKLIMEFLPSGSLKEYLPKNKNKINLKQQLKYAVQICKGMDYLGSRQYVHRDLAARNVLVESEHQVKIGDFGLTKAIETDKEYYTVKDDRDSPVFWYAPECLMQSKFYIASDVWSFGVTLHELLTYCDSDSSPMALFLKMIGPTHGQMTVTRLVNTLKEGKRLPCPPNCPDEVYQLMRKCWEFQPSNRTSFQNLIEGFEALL
Sequence of isolated recombinant JAK2 kinase domain (O60674 849-1124): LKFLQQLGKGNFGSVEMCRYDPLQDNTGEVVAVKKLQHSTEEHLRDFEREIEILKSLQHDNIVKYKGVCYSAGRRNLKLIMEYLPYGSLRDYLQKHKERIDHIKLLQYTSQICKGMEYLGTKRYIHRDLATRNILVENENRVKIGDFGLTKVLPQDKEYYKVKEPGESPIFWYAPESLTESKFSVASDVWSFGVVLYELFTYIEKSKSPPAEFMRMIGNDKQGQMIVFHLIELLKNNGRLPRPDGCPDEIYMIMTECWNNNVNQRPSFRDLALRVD

By Ki is commonly meant a dissociation constant, usually derived from enzyme kinetics or from competition with a known ligand. As a reminder, the IC50 is the concentration needed to halve the response being measured. Consider `C[C@@H]1COc2cc(-c3n[nH]cc3NC(=O)c3cnn4cccnc34)c(OC(F)F)cc2N1` [Example 43, N-[3-[(3R)-6-(difluoromethoxy)-3-methyl-3,4-dihydro-2H-1,4-benzoxazin-7-yl]-1H-pyrazol-4-yl]pyrazolo[1,5-a]pyrimidine-3-carboxamide], for which the Ki came out at 0.17 nM in assay [1] and 0.25 nM in assay [2]. The IC50 in assay [3] (setting [4]) came out at 12 nM.
For `O=C(Nc1cn(CC(=O)N2CCC(CN3CCOCC3)CC2)nc1-c1cc2c(cc1OC(F)F)NCCO2)c1cnn2cccnc12` [Example 44, N-[3-[6-(difluoromethoxy)-3,4-dihydro-2H-1,4-benzoxazin-7-yl]-1-[2-[4-(morpholinomethyl)-1-piperidyl]-2-oxo-ethyl]pyrazol-4-yl]pyrazolo[1,5-a]pyrimidine-3-carboxamide], in that order: 0.51 nM, 0.34 nM and 45 nM.
As for `C[C@H]1CNc2cc(OC(F)F)c(-c3nn(CC(=O)N4CCC(CN5CCOCC5)CC4)cc3NC(=O)c3cnn4cccnc34)cc2S1` [Example 45, N-[1-[2-[4-(morpholinomethyl)-1-piperidyl]-2-oxo-ethyl]-3-[(2S)-6-(difluoromethoxy)-2-methyl-3,4-dihydro-2H-1,4-benzothiazin-7-yl]pyrazol-4-yl]pyrazolo[1,5-a]pyrimidine-3-carboxamide], the results for the Ki in assay [1] and in assay [2] were 0.24 nM and 0.22 nM, respectively. Moreover, the IC50 in assay [3] (setting [4]) worked out at 29 nM.
For `C[C@@H]1CNc2cc(OC(F)F)c(-c3nn(CC(=O)N4CCC(CN5CCOCC5)CC4)cc3NC(=O)c3cnn4cccnc34)cc2S1` [Example 46, N-[1-[2-[4-(morpholinomethyl)-1-piperidyl]-2-oxo-ethyl]-3-[(2R)-6-(difluoromethoxy)-2-methyl-3,4-dihydro-2H-1,4-benzothiazin-7-yl]pyrazol-4-yl]pyrazolo[1,5-a]pyrimidine-3-carboxamide], in that order: 0.31 nM, 0.25 nM and 31 nM.
As for `O=C(Nc1cn(CC(=O)N2CCC(N3CCOCC3)CC2)nc1-c1cc2c(cc1OC(F)F)NCCO2)c1cnn2cccnc12` [Example 47, N-[3-[6-(difluoromethoxy)-3,4-dihydro-2H-1,4-benzoxazin-7-yl]-1-[2-(4-morpholino-1-piperidyl)-2-oxo-ethyl]pyrazol-4-yl]pyrazolo[1,5-a]pyrimidine-3-carboxamide], the Ki in assay [1] came out at 0.45 nM; in assay [2], 0.31 nM. Besides, in assay [3] (setting [4]), the IC50 stood at 106 nM.
Turning to `O=C(Nc1cn(CC(=O)N2CCC(O)CC2)nc1-c1cc2c(cc1OC(F)F)NCCO2)c1cnn2cccnc12` [Example 48, N-[3-[6-(difluoromethoxy)-3,4-dihydro-2H-1,4-benzoxazin-7-yl]-1-[2-(4-hydroxy-1-piperidyl)-2-oxo-ethyl]pyrazol-4-yl]pyrazolo[1,5-a]pyrimidine-3-carboxamide], the Ki came to 0.51 nM in assay [1] and 0.3 nM in assay [2]. In addition, in assay [3] (setting [4]), the IC50 is greater than 1000 nM.
For `O=C(Nc1cn(CC(=O)N2CC=CCC2)nc1-c1cc2c(cc1OC(F)F)NCCO2)c1cnn2cccnc12` [Example 49, N-[3-[6-(difluoromethoxy)-3,4-dihydro-2H-1,4-benzoxazin-7-yl]-1-[2-(3,6-dihydro-2H-pyridin-1-yl)-2-oxo-ethyl]pyrazol-4-yl]pyrazolo[1,5-a]pyrimidine-3-carboxamide], in that order: 0.29 nM, 0.23 nM and 19 nM.
For `O=C(Nc1cn(CC(=O)N2CC=CCC2)nc1-c1cc2c(cc1OC(F)F)NCCS2)c1cnn2cccnc12` [Example 50, N-[3-[6-(difluoromethoxy)-3,4-dihydro-2H-1,4-benzothiazin-7-yl]-1-[2-(3,6-dihydro-2H-pyridin-1-yl)-2-oxo-ethyl]pyrazol-4-yl]pyrazolo[1,5-a]pyrimidine-3-carboxamide], in that order: 0.1 nM, 0.11 nM and 10 nM.
For `O=C(Nc1cn(CC(=O)N2CCCCC2)nc1-c1cc2c(cc1OC(F)F)NCCS2)c1cnn2cccnc12` [Example 51, N-[3-[6-(difluoromethoxy)-3,4-dihydro-2H-1,4-benzothiazin-7-yl]-1-[2-oxo-2-(1-piperidyl)ethyl]pyrazol-4-yl]pyrazolo[1,5-a]pyrimidine-3-carboxamide], in that order: 0.1 nM, 0.13 nM and 11 nM.
For the compound `O=C(Nc1cn(CC(=O)N2CCC(O)CC2)nc1-c1cc2c(cc1OC(F)F)NCCS2)c1cnn2cccnc12` [Example 52, N-[3-[6-(difluoromethoxy)-3,4-dihydro-2H-1,4-benzothiazin-7-yl]-1-[2-(4-hydroxy-1-piperidyl)-2-oxo-ethyl]pyrazol-4-yl]pyrazolo[1,5-a]pyrimidine-3-carboxamide], the Ki amounted to 0.14 nM in assay [1] and 0.16 nM in assay [2]. Besides, the IC50 in assay [3] (setting [4]) came to 285 nM.
`CCN1CCN(C(=O)Cn2cc(NC(=O)c3cnn4cccnc34)c(-c3cc4cn[nH]c4cc3OC(F)F)n2)CC1` [Example 53, N-[3-[6-(difluoromethoxy)-1H-indazol-5-yl]-1-[2-(4-ethylpiperazin-1-yl)-2-oxo-ethyl]pyrazol-4-yl]pyrazolo[1,5-a]pyrimidine-3-carboxamide]: the Ki was 0.39 nM in assay [1] and 0.25 nM in assay [2]. Moreover, the IC50 in assay [3] (setting [4]) was found to be 88 nM.
The matching figures for `COc1cc2ccsc2cc1-c1nn(CC(=O)N2CCC(N3CCOCC3)CC2)cc1NC(=O)c1cnn2cccnc12` [Example 54, N-[3-(5-methoxybenzothiophen-6-yl)-1-[2-(4-morpholino-1-piperidyl)-2-oxo-ethyl]pyrazol-4-yl]pyrazolo[1,5-a]pyrimidine-3-carboxamide]: 2.1 nM, 0.92 nM and 46 nM.
For `N#Cc1cc2cc(OC(F)F)c(-c3nn(CC(=O)N4CCC(N5CCOCC5)CC4)cc3NC(=O)c3cnn4cccnc34)cc2s1` [Example 55, N-[3-[2-cyano-5-(difluoromethoxy)benzothiophen-6-yl]-1-[2-(4-morpholino-1-piperidyl)-2-oxo-ethyl]pyrazol-4-yl]pyrazolo[1,5-a]pyrimidine-3-carboxamide], in that order: 0.41 nM, 0.41 nM and 20 nM.
For `NC(=O)c1cc2cc(OC(F)F)c(-c3nn(CC(=O)N4CCC(N5CCOCC5)CC4)cc3NC(=O)c3cnn4cccnc34)cc2s1` [Example 56, N-[3-[2-carbamoyl-5-(difluoromethoxy)benzothiophen-6-yl]-1-[2-(4-morpholino-1-piperidyl)-2-oxo-ethyl]pyrazol-4-yl]pyrazolo[1,5-a]pyrimidine-3-carboxamide], in that order: 0.37 nM, 0.39 nM and greater than 333 nM.
Regarding `O=C(Nc1cn(CC(=O)N2CCC(N3CCOCC3)CC2)nc1-c1cc2ccccc2cc1OC(F)F)c1cnn2cccnc12` [Example 57, N-[3-[3-(difluoromethoxy)-2-naphthyl]-1-[2-(4-morpholino-1-piperidyl)-2-oxo-ethyl]pyrazol-4-yl]pyrazolo[1,5-a]pyrimidine-3-carboxamide], the Ki in assay [1] came out at 0.87 nM; in assay [2] it was 0.56 nM. For the same compound, in assay [3] (setting [4]), the IC50 amounted to 17 nM.
The matching figures for `O=C(Nc1cn(CC(=O)N2CCC(N3CCOCC3)CC2)nc1-c1cc2c(cc1OC(F)F)NCCS2)c1cnn2cccnc12` [Example 58, N-[3-[6-(difluoromethoxy)-3,4-dihydro-2H-1,4-benzothiazin-7-yl]-1-[2-(4-morpholino-1-piperidyl)-2-oxo-ethyl]pyrazol-4-yl]pyrazolo[1,5-a]pyrimidine-3-carboxamide]: 0.22 nM, 0.19 nM and 54 nM.
For `O=C(Nc1cn(CC(=O)N2CCC(CN3CCOCC3)CC2)nc1-c1cc2c(cc1OC(F)F)NCCS2)c1cnn2cccnc12` [Example 59, N-[3-[6-(difluoromethoxy)-3,4-dihydro-2H-1,4-benzothiazin-7-yl]-1-[2-[4-(morpholinomethyl)-1-piperidyl]-2-oxo-ethyl]pyrazol-4-yl]pyrazolo[1,5-a]pyrimidine-3-carboxamide], in that order: 0.23 nM, 0.22 nM and 25 nM.
For the compound `N#Cc1cc2cc(OC(F)F)c(-c3nn(CC(=O)N4CCC(CN5CCOCC5)CC4)cc3NC(=O)c3cnn4cccnc34)cc2s1` [Example 60, N-[3-[2-cyano-5-(difluoromethoxy)benzothiophen-6-yl]-1-[2-[4-(morpholinomethyl)-1-piperidyl]-2-oxo-ethyl]pyrazol-4-yl]pyrazolo[1,5-a]pyrimidine-3-carboxamide], the figures for the Ki in assay [1] and in assay [2] were 0.35 nM and 0.36 nM, respectively. Also, the 50% inhibitory concentration (IC50) in assay [3] (setting [4]) came out at 12 nM.
The matching figures for `NC(=O)c1cc2cc(OC(F)F)c(-c3nn(CC(=O)N4CCC(CN5CCOCC5)CC4)cc3NC(=O)c3cnn4cccnc34)cc2s1` [Example 61, N-[3-[2-carbamoyl-5-(difluoromethoxy)benzothiophen-6-yl]-1-[2-[4-(morpholinomethyl)-1-piperidyl]-2-oxo-ethyl]pyrazol-4-yl]pyrazolo[1,5-a]pyrimidine-3-carboxamide]: 0.78 nM, 0.64 nM and greater than 333 nM.
As to `NC(=O)c1cc2cc(OC(F)F)c(-c3nn(CC(=O)N4CCC(=O)CC4)cc3NC(=O)c3cnn4cccnc34)cc2s1` [Example 62, N-[3-[2-carbamoyl-5-(difluoromethoxy)benzothiophen-6-yl]-1-[2-oxo-2-(4-oxo-1-piperidyl)ethyl]pyrazol-4-yl]pyrazolo[1,5-a]pyrimidine-3-carboxamide], the values for the Ki in assay [1] and in assay [2] were 0.24 nM and 0.38 nM, respectively. In assay [3], the IC50 was greater than 333 nM.
